Assay results published in patent US10584127B2, “3,3-difluoropiperidine carbamate heterocyclic compounds as NR2B NMDA receptor antagonists” (Rugen Holdings (Cayman) Limited, priority 2015, dated 2020).

Assays:
[1] = system: immobility in forced swim test; test: Forced Swim Test (FST) in mice; format: in vivo
Source text: (§1) The forced swim test (FST) also known at the behavioural despair test was used to evaluate antidepressant activity (Porsolt et al., 1977 Arch. Int. Pharmacodyn. 229: 327-336, Porsolt et al., 1977, Eur. J. Pharmacol. 47:379-391). Mice or rats that are forced to swim in a situation from which they cannot escape, rapidly become immobile. Drugs with antidepressant activity, such as imipramine, reduce the amount of time spent in the immobile state. Therefore, the amount of immobility time during a test conducted after drug administration represents a useful indicator of antidepressant activity (Lucki et al 2001 Psychopharmacology 155:315-322; Porsolt et al., 1977, Nature 266:730-732).
Test compound E1-8.2 was administered as the free base.
Testing for antidepressant activity was conducted in rats or mice according to the general procedures below.
Mice were evaluated in a single swimming test session of 6 minutes. Mice were placed in a transparent plastic cylinder 24 cm high with a diameter of 13 cm containing 10 cm of water with ambient temperature control generally from 22±2° C. Mice were placed in the water for 6 minutes and the duration of immobility during the last 4 minutes was measured.
Animals were observed by a blinded observer. […] The amount of time each animal spent in the immobile state (and the latency to the first bout of immobility) was recorded and used for statistical analysis of compound effect. Group differences were evaluated by student's t-test (reference substance) or one-way ANOVA followed by post-hoc Dunnett's test (test substances). […]
Male mice (strain NLMN) weighing 25-35 g were used for testing. […] The mice were videotaped for 6 minutes, and the last 4 minutes of video were analyzed by a blinded observer off-line. […] The amount of time each animal spent in the immobile state was recorded and used for statistical analysis of compound effect. Group differences were evaluated by student's t-test or one-way ANOVA followed by post-hoc Dunnett's test. […]

[2] = system: immobility in forced swim test; test: Forced Swim Test (FST) in rats; format: in vivo
Source text: as §1
Test compound E1-8.2 was administered as the free base. […]
Male Wistar rats weighing 197-251 g were used for the rat test. Rats were evaluated according to a two-session procedure with a swimming session of 15 minutes on the first day of the experiment (Session 1) followed 24 hours later by a 5-minute swimming test (Session 2). […] Rats were placed in the water 24 h later for 5 minutes (Session 2) and the duration of immobility was measured.
Animals were observed by a blinded observer. […] The amount of time each animal spent in the immobile state (and the latency to the first bout of immobility) was recorded and used for statistical analysis of compound effect. […]

Measured: antidepressant activity (immobility time)

CN(C)CCCN1c2ccccc2CCc2ccccc21 [imipramine]
expected antidepressant activity: [1]; 32 mpk i.p. once 30 min before the test | [1]; 64 mpk p.o. once 60 min before the test | [1]; 128 mpk p.o. once 60 minutes before the test on Day 7 | [2]; 32 mpk i.p. 3 times: 24 h, 4 h and 30 min before the test (Session 2) | [2]; 64 mpk p.o. 3 times: 24 h, 4 h and 60 min before the test (Session 2)
